Laboratory results reported in BindingDB's records for doi:10.1074/jbc.M109.017632 (University of California San Francisco, 2009).

Key:
Experiment in all cases: Binding Assay
[1] = biological target: T1, Cytochrome P450 130 (Mycobacterium tuberculosis (strain ATCC 25618 / H37Rv), UniProt P9WPN5)
T1 sequence (P9WPN5 whole entry): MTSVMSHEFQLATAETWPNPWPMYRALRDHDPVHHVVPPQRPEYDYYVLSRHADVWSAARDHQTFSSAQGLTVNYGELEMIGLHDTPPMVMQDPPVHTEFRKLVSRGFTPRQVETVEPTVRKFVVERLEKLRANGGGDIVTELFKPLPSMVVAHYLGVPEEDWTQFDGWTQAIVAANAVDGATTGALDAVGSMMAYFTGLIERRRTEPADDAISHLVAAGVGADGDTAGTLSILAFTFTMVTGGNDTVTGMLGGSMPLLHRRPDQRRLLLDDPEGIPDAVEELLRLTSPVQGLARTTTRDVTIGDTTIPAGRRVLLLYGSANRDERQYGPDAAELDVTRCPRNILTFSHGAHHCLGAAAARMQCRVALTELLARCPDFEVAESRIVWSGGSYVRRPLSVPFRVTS
Source text: (§1) Binding assay using CYP130, CYP130 (G234) or CYP142.

[2] = biological target: T2, Cytochrome P450 130 (Mycobacterium tuberculosis (strain CDC 1551 / Oshkosh), UniProt P9WPN4)
T2 sequence (P9WPN4 whole entry): T1 sequence (P9WPN5 whole entry)
Source text: as §1

[3] = biological target: T3, Steroid C26-monooxygenase (Mycobacterium tuberculosis (strain CDC 1551 / Oshkosh), UniProt P9WPL4)
T3 sequence (P9WPL4 whole entry): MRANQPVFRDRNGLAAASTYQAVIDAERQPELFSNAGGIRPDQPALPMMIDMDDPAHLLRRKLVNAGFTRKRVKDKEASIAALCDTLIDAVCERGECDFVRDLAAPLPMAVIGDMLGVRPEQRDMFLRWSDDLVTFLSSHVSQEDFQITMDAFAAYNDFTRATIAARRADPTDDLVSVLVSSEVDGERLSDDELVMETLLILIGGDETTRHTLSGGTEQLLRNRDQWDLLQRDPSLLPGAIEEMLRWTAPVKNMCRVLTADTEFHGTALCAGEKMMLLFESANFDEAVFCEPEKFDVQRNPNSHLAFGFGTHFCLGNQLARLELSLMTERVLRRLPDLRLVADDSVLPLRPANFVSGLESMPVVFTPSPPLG
Source text: as §1

With NCc1ccccc1 the Kd [1] was 10000 µM, the Kd [2] was 9990 µM and the Kd [3] was 100 nM.
Clc1ccccc1C(c1ccccc1)(c1ccccc1)n1ccnc1 showed a Kd [1] of 6.1 µM and a Kd [2] of 13.3 µM.
In the case of Nc1ccccc1 [Aniline], the Kd [1] is reported as 2500 µM, the Kd [2] is reported as 55.2 µM and the Kd [3] is reported as 59200 nM.
For Nc1ccc(Sc2ccc(N3C(=O)c4ccc(N)cc4C3=O)cc2)cc1 [Arylamine compound 2], the Kd [1] was 4.9 µM, the Kd [2] was 1.08 µM and the Kd [3] was 170 nM.
Cc1cccc(-n2cnc3cc(N)ccc32)c1 [Arylamine compound 4] showed a Kd [1] of 32.6 µM and a Kd [2] of 4.8 µM.
Work on Clc1ccc(COC(Cn2ccnc2)c2ccc(Cl)cc2Cl)cc1 (stereo unspecified) [ECONAZOLE] yielded a Kd [1] of 4.5 µM, a Kd [2] of 1.93 µM and a Kd [3] of 330 nM.
